In this assay the test system is Splenocyte. The assay can be described thus: Immunomodulatory activity in mouse splenocyte assessed as stimulation of proliferation at 10 umole/L after 44 hrs by MTT assay in presence of ConA. Type of assay: functional, cell-based. Background: Tetrazolium dyes change colour on reduction, which living cells bring about.

Structures are written as SMILES. Activity calls are given as the source filed them. The rule behind the calls is not given here.

As to `CC(C)(O)[C@@H]1CC[C@]23CO[C@](C)(CC[C@@H]2O)[C@H]3[C@@H]1O[C@@H]1O[C@H](CO)[C@@H](O)[C@H](O)[C@H]1O`, the outcome was Active.

The values are drawn from ChEMBL document CHEMBL1155726, “Seven new sesquiterpene glycosides from the root bark of Dictamnus dasycarpus” (J Nat Prod, 2001).
